This series relates to NB-EBC1x tumor. The experiment in a line: Biodistribution, autoradiography and tumor dosimetry in NB-EBC1x tumor-bearing mice. It is filed as in vivo, female SCID CB17 mice. To be noted: for %Injected Dose/gram, tumor: NB-EBC1 tumor, single mouse. On the procedure: At various time points mice were euthanized and tissues were harvested, weighed, and assayed for radioactivity by gamma counter. Decay corrected data presented as percent injected dose per gram of tissue (%ID/g). Human dosimetry was calculated using OLINDA/EXM software by fitting time activity curves for biodistribution data. Tissue autoradiography was performed by freezing excised tumors at 1 h postinjection of each respective treatment. One tumor was collected for each treatment group. Tumors were cryosectioned (Leica Cryotome) at a thickness of 20 µm. Each section was collected with a 200 µm gap and a total of three sections were collected for each tumor. Sections were then exposed to a phosphorfilm for 60 h and films were read on a Cyclone Plus phosphorimager (Perkin Elmer). Experimental conditions have been included in the Supplementary Methods.
Animal studies were performed in female mice due to the lack of sex-related differences for [^211At]PTT tolerability from initial dose response studies performed in female and male mice. Female mice were chosen due to their underlying behavior towards other study subjects that reduced nonstudy-related causes for decreased wellness. Pre-clinical efficacy studies were performed through “single mouse testing” to more closely recapitulate a clinical trial. […] Number size for treatment groups was determined by model tumor growth reproducibility, which was previously shown to have less than 5% normal variation with at least two animals. Statistical tests for tumor response and event-free survival (EFS) were performed as a grouped analysis that included all tumor models treated at each respective dose level (n = 2 per model per dose level). Statistical differences between treatment groups for tumor response was performed by paired-model T-test that compared reduction in tumor volume for the 36 MBq/kg dose level vs. 24 MBq/kg or 12 MBq/kg. Event free survival was measured by area over the curve method to quantify time to event, which was set as tumor growth exceeding 2 cm[3],[19]. Differences in EFS were tested across all treated models for each respective dose level, and against untreated controls, by paired-model ANOVA analysis. Associations of drug target expression and response were performed by linear regression analysis of EFS and PARP1 mRNA expression. Genetic signatures were visually presented as a function of EFS and no statistical tests were applied. Blood and marrow toxicity studies were performed with n = 5 sample sizes and powered to detect >20% differences between untreated controls and treated animals. Results were tested for significance by one-way ANOVA comparison from untreated controls. Marrow colony formation assays were performed in replicates of 2 for each mouse subject, dependent on marrow isolation, and all replicates are included in final analyses. Statistical analysis was performed by ordinary one-way ANOVA comparison between the mean of control and test groups. Biodistribution studies were performed with n = 3 mice per time-point. Human dosimetry was calculated using OLINDA/EXM v1.1 software by fitting time activity curves for biodistribution data in a healthy mouse model. Tumor dosimetry was calculated by OLINDA/EXM v1.1 by fitting time activity curves for NB-EBC1 tumors from biodistribution data. All statistical analyses were performed in GraphPad Prism version 9.3.1 unless indicated otherwise.

Data on one molecule can be found in publication PMC9671962 (Communications Biology, 2022).

Several values for one entry are separate records, joined by “and”; a condition that tells them apart may be missing. Equal values may be shown once.

On to `O=C1NCCn2c(-c3ccc([211At])cc3)nc3cccc1c32` [[^211At]PTT, Astatine-211-parthanatine], for which the average tumor dose (1-year-old phantom, derived from NB-EBC1 tumor-bearing mouse model) stood at 0.060 Gy per MBq/kg. For the same molecule, under “1 h”, the “thyroid uptake with co-administration of potassium iodide” value is “partially blocked”. Also, the “Absorbed Dose, Tumor” value (NB-EBC1 tumor-bearing CB57 SCID mice, three values) is 4.5716 cGy/MBq/kg and 5.9806 cGy/MBq/kg and 7.417 cGy/MBq/kg. Also, the “%Injected Dose/gram, tumor” value is 2.4065 %ID/g and 3.551 %ID/g and 6.66 %ID/g (time point 0.5); 8.705 %ID/g and 13.3276 %ID/g and 24.86 %ID/g (time point 1); 7.986 %ID/g and 8.236 %ID/g and 8.192 %ID/g (time point 6); 0.008485 %ID/g and 1.144 %ID/g and 1.578 %ID/g (time point 24). The “tumor penetrance by ex-vivo autoradiography” value (NB-EBC1 tumors, 1 h postinjection) is “high tumor penetrance”. Besides, the “tumor dosimetry (estimated)” value (NB-EBC1x tumor-bearing mouse model) is 6 cGy/MBq/kg. Besides, the “cumulative absorbed dose to tumor” value (NB-EBC1x, after 4 dose fractions of 36 MBq/kg) turned out to be 8.6 Gy. The “absorbed dose to tumor per dose fraction” value (NB-EBC1x, per 36 MBq/kg dose) is recorded as 2.15 Gy. Moreover, the “biological half-life in tumor” value (seen in mice in the present study) was 5.1 hr.
